PMC12775124, “CUL4A-DDB1-DCAF10 is an N-recognin for N-terminally acetylated Src kinases” (Nature Communications, 2026)

Tests used:
GST-DCAF10 = experiment: Streptavidin pull-down of GST-DCAF10 with biotinylated Nt-peptides; assay type: binding, human; settings: 0.5 µM GST-DCAF10, 5 µM peptide, 1 h RT; WB; listed as Nt-acetylated Fyn
Method: To confirm direct interactions between peptides and DCAF10, we performed pull-down assays using bead-bound Nt-peptide variants incubated with purified full-length GST-DCAF10 or GST as a negative control (Fig. 2m–p and Supplementary Fig. 4a).
230 of 1:100), and desalted/concentrated on C18 reversed phase stage tips as previously
MS measurements settings are stated in MS measurements and raw file
BL21(DE3) cells (Thermo Fisher Scientific,
240 agar) plate containing 100 μg/mL ampicillin and 34 μg/mL chloramphenicol, then
Terrific broth (TB) medium (24 g/L yeast extract,
243 20 g/L tryptone, glycerol 4 mL/L, 100 mL/L phosphate buffer containing 0.17 M KH2PO4
244 and 0.72 M K2HPO4) was used to prepare a 1:100 dilution of the starter culture, and OD600
At OD600 = 1, protein induction was initiated by adding 1 mM
247 day, pellets were homogenized and lysed in glycerol lysis buffer (20 mM Tris-HCl pH
Lysis was performed on ice for 30 min, followed by
250 sonication (7 × 20 sec pulses with 20 sec breaks on ice) using a Bandelin sonoplus
Lysates were centrifuged at 4°C for 1 h
253 medium culture was lysed in 20 mL of supernatant (collected in 20 × 1 mL tubes). GST
255 agarose bead; Thermo Fisher Scientific, Waltham, MA, USA). For each 1 mL of
100 μL of GST magnetic beads
257 were washed twice with 500 μL of wash buffer (125 mM Tris-HCl pH 7.4, 150 mM NaCl,
The lysis supernatant was diluted 1:1 with
259 wash buffer, and incubated with the beads on an end-over-end rotator for 1 h at 25°C.
260 After incubation, the supernatant was removed, and the beads were washed twice with
Protein elution was then performed by incubating
263 pH 7.4, 250 mM NaCl, 0.3% Triton X-100) for 30 min at 25°C on an end-over-end rotator.
265 under the same conditions. Elution fractions were pooled and concentrated by
266 centrifugation (4°C, 25 min, 4500 rpm) using a 30 kDa cut-off concentrator (Merck
267 Millipore, #UFC803008, Darmstadt, Germany). Purified proteins were analyzed by
268 colloidal Coomassie stain, WB and MS.
270 Streptavidin pull-downs with GST-DCAF10 and biotinylated peptides
271 Streptavidin magnetic beads (DynabeadsTM MyOneTM Streptavidin T1; Thermo Fisher
272 Scientific, Waltham, MA, USA) were washed twice with 500 μL of wash buffer (125 mM
273 Tris-HCl pH 7.4, 150 mM NaCl, 0.1% Triton X-100). An excess of peptides was added
274 (to ensure full occupancy of the beads) and incubated for 30 min at RT. After peptide
275 binding, beads were again washed three times with 500 μL of wash buffer. The pull-down
276 was then performed in a 100 μL reaction volume with final concentrations of 0.5 µM
277 GST-DCAF10 and 5 µM peptide. GST-DCAF10 or GST alone (as a control) was added
278 to the peptide-streptavidin beads and incubated on a rotator for 1 h at RT. After incubation,
279 the beads were washed three times with 500 μL of wash buffer and resuspended in 4x
280 Laemmli buffer. 1/5 of the input (GST-DCAF10 and GST) and 9/10 of the sample were
281 loaded on a 10% SDS gel and blotted with anti-GST and anti-DCAF10 antibodies, while
282 1/10 was loaded on a 15% SDS gel and blotted with anti-streptavidin antibody to assess
283 equal peptide loading.
285 Streptavidin Sepharose High Performance, GE Healthcare, Chicago, IL, USA) were used.
286 After washing with a high salt wash buffer without detergents (125 mM Tris-HCl pH 7.4,
287 400 mM NaCl), an excess of peptides was added and incubated for 30 min at RT. For each
288 reaction, 10 µL of slurry beads were used. After peptide-binding, beads were again
289 washed once with a high salt wash buffer without detergents and twice with binding buffer
290 without detergents (125 mM Tris-HCl pH 7.4, 150 mM NaCl). The pull-downs were
291 performed in a 100 μL reaction volume in binding buffer without detergents with a final
292 concentration of 0.5 µM GST-DCAF10 and incubated rotating for 1 h at RT. After
293 incubation, the beads were washed five times with 500 μL of high salt wash buffer without […]

DCAF10 = experiment: Peptide pull-down with quantitative MS, HeLa lysate, DCAF10; assay type: binding, human (HeLa); settings: HeLa lysate
Method: Beads presenting 10-residue synthetic Nt-peptides of proteins of interest in their free (Nt-free) or modified (e.g., Nt-acetylated) versions were incubated with lysates from HeLa cells, followed by MS-based quantification of retained binders (Fig. 1a).
Biotinylated 10-mer Nt-peptides (Nt-free, Nt-acetylated, and, where indicated, Nt-myristoylated; sequences in Supplementary Table 1) were synthesized with a C-terminal Lys3 spacer and biotin, immobilized on magnetic streptavidin beads, and incubated with HeLa or mouse liver lysates. After standardized washes, bound proteins were on-bead reduced/alkylated, digested with LysC/trypsin, desalted, and analysed by LC-MS in DIA mode (Orbitrap Exploris 480) as described previously[24]. Variants included endogenous Nt-sequences, swap and mutant (Ala-Ala-Ala or Nt-amino acids) peptides, and pairwise comparisons of conditions of interest.
All MS experiments were performed as independent biological triplicates. Relative protein quantification was carried out using the label-free algorithm integrated in DIA-NN[53], and statistical testing was performed in Perseus using a two-sided Student’s t test with permutation-based multiple-testing-adjusted p-values[53],[54], as specified in the figure legends. […] Volcano blots were visualized with RStudio (version 2023.06.0). […] Cell experiments were performed as biological replicates, and binding assays as independent assays. […] Data are presented as mean ± s.d. Fold changes are reported as the ratio of the normalized value for the condition of interest to the normalized control value, with mean ± s.d. computed across biological replicates.

[1] = test system: DLD-1 Flp-In T-REx and Lyn KO cells; experiment: Level of Lyn / Lyn-GFP variants after NMT1/2 and DCAF10 siRNA, Western blot; assay type: cell-based, human; settings: WB/vinculin, n = 3
Description: To further investigate the role of the Nt-amino acid and its modification in DCAF10 recognition and DCAF10-dependent ubiquitination, we used the CRISPR/Cas9 technique to knock out Lyn in DLD-1 cell lines with T-REx Flp-In background (DLD-1 Lyn KO Flp-In T-REx) (Supplementary Fig. 7a–c). We then integrated Lyn^WT-GFP and two Nt-mutants (Lyn^G2A-GFP and Lyn^G2P-GFP) under a doxycycline-inducible promoter into the Flp-In cassette. Alanine (G2A) is expected to be efficiently acetylated by NatA, generating an Nt-acetylated Lyn mutant. Conversely, the proline (G2P) mutant, is expected not to be acetylated and may retain a free N-terminus[3],[36],[37]. Doxycycline-induced expression of Lyn^WT-GFP, Lyn^G2A-GFP, and Lyn^G2P-GFP was confirmed by Western blot, MS, and fluorescence microscopy (Supplementary Figs. 7d, e; 8a and Supplementary Data 6). While all constructs were ~2–5-fold higher expressed than endogenous Lyn, G2A and G2P were further elevated relative to WT, which may reflect increased stability when Nt-Gly/acetylation is altered (Supplementary Fig. 7e). […] Lyn^WT-GFP mirrored the behavior of endogenous Lyn under NMT1/2 siRNA treatment. Lyn levels decreased with NMT1/2 KD, but were rescued when siRNAs targeting both NMT1/2 and DCAF10 were applied (Fig. 6a, b). […] The weaker reduction of Lyn^WT-GFP may result from Lyn overexpression and the limiting availability of DCAF10.
Fig. 6 N-terminal glycine mutation abolishes DCAF10-dependent stability and ubiquitination. a DLD-1 Flp-In T-REx cells and Lyn KO cells expressing Lyn^WT-GFP, Lyn^G2A-GFP, or Lyn^G2P-GFP were induced for 24 h with 100 ng/mL doxycycline. Cells were treated with NMT1/2 siRNA, DCAF10 siRNA, or both (or left untreated) for 72 h. Representative WBs are shown. Filled circles represent siRNA treatment, empty circles untreated. b WB quantifications of Lyn levels normalized to vinculin. Purple: untreated with NMT1/2 siRNA; blue: treated with NMT1/2 siRNA. Mean ± s.d. with individual data points are shown (n = 3 independent biological replicates). c Schematic of ubiquitination experiments. Created in BioRender. […] Lysates have been treated with NMT1/2 RNAi for 72 h. i Quantification of in vitro ubiquitination assays. Mean ± s.d. with individual data points are shown (n = 3 independent ubiquitination assays). Volcano plots of Lyn-GFP^WT binding partners: j NMT1/2 siRNA ± doxycycline (Dox); k Control ± doxycycline; l NMT1/2 siRNA vs. control both with doxycycline. The −log10 adjusted p-value (two-sided Student’s t test with permutation-based multiple-testing correction; y-axis) is plotted against the log2 fold change (x-axis). Threshold for significance: −log10 p-value ≥ 1.3 (p ≤ 0.05), log2 fold change ≤ −1 or ≥ 1. DCAF10 and Lyn-GFP are marked in green, significant binding partners in purple and in blue, respectively. Source data are provided as a Source data file.
DLD-1 Lyn knockout (KO) Flp-In T-REx cells were generated by CRISPR/Cas9 electroporation using two guide RNAs targeting the LYN locus. Editing and clone validation were confirmed by genomic sequencing, Western blotting, and MS[51]. Stable cell lines expressing doxycycline-inducible Lyn-GFP (WT, G2A, or G2P) were established by FRT/Flp-mediated recombination and validated by antibiotic selection, Western blotting, and fluorescence microscopy. Detailed protocols are provided in the Supplementary Methods and Tables.
461 electroporated using the CM137 program. Following electroporation, the cells were kept […]

CUL4A-DDB1-DCAF10 = experiment: In vitro ubiquitination of Lyn-GFP variants by CUL4A-DDB1-DCAF10; assay type: biochemical, human; settings: Lyn-GFP variants, NMT1/2 siRNA
Description: Lyn^WT-GFP was ubiquitinated by the WT E3 complex in both conditions; however, unlike in vitro ubiquitination with endogenous Lyn (Fig. 5c, d), ubiquitination increased ~6-fold under NMT1/2 siRNA conditions. This is consistent with DCAF10 being limiting and overexpressed Lyn-GFP, accumulating an acetylated fraction available for DCAF10 in vitro. Then, we performed IPs for all Nt variants under NMT1/2 siRNA conditions (Fig. 6d, h–i). […] In vitro ubiquitination assays using untreated cell lysates led to similar results (Supplementary Fig. 7h, i).
Reactions contained E1, UBCH5B (E2), ubiquitin, Mg-ATP in ligation buffer and were incubated with bead-bound substrates, followed by washing and immunoblot detection of ubiquitinated species (anti-ubiquitin), with loading controls (anti-Lyn, -Fyn, -Src or -GFP) (n = 3 independent enzymatic assays). Complete reagent lists, complex preparation, substrate IP conditions, wash buffers, and gel/blot parameters are provided in the Supplementary Methods and Tables.
357 (v/v) glycerol, 2 mM TCEP, supplemented with Protease Inhibitor Cocktail), and lysed
358 by sonication. Lysates were cleared by centrifugation at 28,000 rpm for 45 min at 4 °C
359 using a JA-30.50 rotor (Beckman Coulter, Brea, CA, USA). The cleared and filtered (0.8
360 µm) lysate was applied to 1 mL of Strep-Tactin®XT 4Flow® resin (iba), pre-equilibrated
361 once with wash buffer (100 mM Tris-HCl pH 8.0, 150 mM NaCl, 1 mM EDTA) and lysis
362 buffer. The lysate was incubated on a tube roller for 16 h at 4 °C. After incubation, beads
363 were washed with 50 mL of lysis buffer. Bound proteins were eluted with 10 mL of lysis
364 buffer supplemented with 50 mM biotin, after 15 min incubation on a tube roller at 4 °C.
366 Superdex 200 10/300 or 16/60 SEC column (GE Healthcare, Chicago, IL, USA),
367 preequilibrated in SEC buffer (250 mM Tris pH 7.5, 250 mM NaCl, 10% (v/v) glycerol,
370 Purified proteins were visualized during and after the purification by SDS-gels containing
371 TCE (2,2,2-trichloroethanol)62. The identity of proteins was confirmed by WB and MS.
373 In vitro ubiquitination assays
374 The in vitro ubiquitination assays were performed as previously described8. In brief,
375 E1 (50 nM), UBCH5B (250 nM), ubiquitin (1.5 µg), Mg-ATP (3 mM), ligation buffer,
376 and water were pre-mixed. The premix was divided, and either CUL4A-RBX1-
378 RBX1DDB1 (-DCAF10) (250 nM each) was added. 15 μL of each premix were incubated
379 with substrates (endogenous Lyn or Lyn-GFP constructs) bound to beads for 1 h at 30°C
380 with shaking. Samples were then washed four to five times with a buffer containing 50 […]
382 EDTA, and loaded on a gradient gel (4–15%). Ubiquitination of substrates was assessed
383 by WB using an anti-ubiquitin antibody. Equal substrate loading was evaluated by anti- […]

GCVQCKDKEAKK [Ac-Fyn, Nt-peptide of Fyn, Nt-acetylated]
Binding to GST-DCAF10 (in words) (GST-DCAF10): bound robustly to GST-DCAF10
DCAF10 binding, Nt-Ac vs Nt-Myr (in words) (DCAF10): DCAF10 selectively recognizes the acetylated form
DCAF10 binding (in words) (DCAF10; Nt-Ac vs Nt-free peptides): bound to DCAF10

endogenous Lyn: endogenous Lyn kinase of DLD-1 cells
Level decrease following NMT1/2 KD ([1]; DLD-1, 72 h NMT1/2 siRNA, 24 h doxycycline 100 ng/mL, average): 31%
Level increase upon combined NMT1/2 and DCAF10 KD ([1]; DLD-1, 72 h siRNA): 36.5%

RBX1^mut: catalytically inactive variant complex (RBX1 C75A, H77A)
In vitro ubiquitination (in words) (CUL4A-DDB1-DCAF10): failed to ubiquitinate any variant above background
